Reference: BigSolDB 2.1

CC(=O)S[C@@H]1CC2=CC(=O)CC[C@]2(C)[C@H]2CC[C@@]3(C)[C@@H](CC[C@@]34CCC(=O)O4)[C@H]12
solubility (mole fraction) (in ethanol, 278.75 K): 0.0017
solubility (mole fraction) (in ethanol, 283.55 K): 0.00197
solubility (mole fraction) (in ethanol, 288.45 K): 0.00238
solubility (mole fraction) (in ethanol, 293.45 K): 0.0031
solubility (mole fraction) (in ethanol, 298.35 K): 0.00394
solubility (mole fraction) (in ethanol, 303.15 K): 0.00491
solubility (mole fraction) (in ethanol, 308.25 K): 0.00606
solubility (mole fraction) (in ethanol, 313.15 K): 0.00771
solubility (mole fraction) (in ethanol, 317.95 K): 0.00975
solubility (mole fraction) (in ethyl acetate, 278.85 K): 0.0179
solubility (mole fraction) (in ethyl acetate, 283.65 K): 0.0198
solubility (mole fraction) (in ethyl acetate, 288.55 K): 0.0226
solubility (mole fraction) (in ethyl acetate, 293.45 K): 0.0246
solubility (mole fraction) (in ethyl acetate, 298.3 K): 0.0281
solubility (mole fraction) (in ethyl acetate, 303.15 K): 0.0314
solubility (mole fraction) (in ethyl acetate, 308.1 K): 0.0359
solubility (mole fraction) (in ethyl acetate, 312.95 K): 0.0412
solubility (mole fraction) (in ethyl acetate, 317.75 K): 0.0456
solubility (mole fraction) (in isopropanol, 278.45 K): 0.000994
solubility (mole fraction) (in isopropanol, 283.55 K): 0.00128
solubility (mole fraction) (in isopropanol, 288.4 K): 0.00168
solubility (mole fraction) (in isopropanol, 293.25 K): 0.00208
solubility (mole fraction) (in isopropanol, 298.2 K): 0.00265
solubility (mole fraction) (in isopropanol, 303.05 K): 0.00343
solubility (mole fraction) (in isopropanol, 307.95 K): 0.00445
solubility (mole fraction) (in isopropanol, 312.9 K): 0.00572
solubility (mole fraction) (in isopropanol, 317.55 K): 0.00731
solubility (mole fraction) (in methanol, 278.85 K): 0.000202
solubility (mole fraction) (in methanol, 283.65 K): 0.000267
solubility (mole fraction) (in methanol, 288.55 K): 0.000356
solubility (mole fraction) (in methanol, 293.45 K): 0.00041
solubility (mole fraction) (in methanol, 298.3 K): 0.000612
solubility (mole fraction) (in methanol, 303.15 K): 0.000813
solubility (mole fraction) (in methanol, 308.1 K): 0.00104
solubility (mole fraction) (in methanol, 312.95 K): 0.00139
solubility (mole fraction) (in methanol, 317.75 K): 0.00182
solubility (mole fraction) (in n-butanol, 278.95 K): 0.00194
solubility (mole fraction) (in n-butanol, 283.65 K): 0.00237
solubility (mole fraction) (in n-butanol, 288.55 K): 0.00309
solubility (mole fraction) (in n-butanol, 293.45 K): 0.00396
solubility (mole fraction) (in n-butanol, 298.25 K): 0.00469
solubility (mole fraction) (in n-butanol, 303.05 K): 0.00581
solubility (mole fraction) (in n-butanol, 308.15 K): 0.00732
solubility (mole fraction) (in n-butanol, 312.95 K): 0.00898
solubility (mole fraction) (in n-butanol, 317.65 K): 0.011
solubility (mole fraction) (in n-propanol, 278.4 K): 0.00228
solubility (mole fraction) (in n-propanol, 283.65 K): 0.0026
solubility (mole fraction) (in n-propanol, 288.35 K): 0.00326
solubility (mole fraction) (in n-propanol, 293.25 K): 0.00395
solubility (mole fraction) (in n-propanol, 298.15 K): 0.00488
solubility (mole fraction) (in n-propanol, 303.05 K): 0.00606
solubility (mole fraction) (in n-propanol, 307.95 K): 0.00756
solubility (mole fraction) (in n-propanol, 312.9 K): 0.00957
solubility (mole fraction) (in n-propanol, 318.35 K): 0.0121
